# According to ChEMBL document CHEMBL5344474, “Molecular editing of NSC-666719 enabling discovery of benzodithiazinedioxide-guanidines as anticancer agents” (RSC Med Chem, 2024):
# Key:
# MCF7 = assay: Antiproliferative activity against human MCF7 cells incubated for 72 hrs by MTT assay; details: MCF7, 72 h
# MDA-MB-231 = assay: Antiproliferative activity against human MDA-MB-231 cells incubated for 72 hrs by MTT assay; details: MDA-MB-231, 72 h
# [1] = Selectivity index, ratio of IC50 for HEK293 cells to IC50 for human MCF7 cells; details: HEK293 cells versus MCF7 cells
# [2] = Selectivity index, ratio of IC50 for HEK293 cells to IC50 for human MDA-MB-231 cells; details: HEK293 cells versus MDA-MB-231 cells
# [3] = Selectivity index, ratio of IC50 for HEK293 cells to IC50 for human HCT-116 cells; details: HEK293 cells versus HCT-116 cells
# HCT-116 = assay: Antiproliferative activity against human HCT-116 cells incubated for 72 hrs by MTT assay; details: HCT-116, 72 h
# SCC-9 = assay: Antiproliferative activity against human SCC-9 cells incubated for 72 hrs by MTT assay; details: SCC-9, 72 h
# [4] = Cytotoxicity against HEK293 cells incubated for 72 hrs by MTT assay; details: human
SMILES,IC50 (MCF7) [µM],IC50 (MDA-MB-231) [µM],IC50 (HCT-116) [µM],selectivity ratio [1],selectivity ratio [2],selectivity ratio [3],IC50 (SCC-9) [µM],IC50 at 72 h [4] [µM]
Cc1cc(S(=O)(=O)Nc2nnc(Nc3ccccc3)[nH]2)c(S)cc1Cl,6.3,7,,> 65,> 65,> 65,,
Cc1cc(S(=O)(=O)Nc2nc(Nc3ccc(Cl)cc3)n[nH]2)c(S)cc1Cl,7.4,8.4,,,,,,
Cc1cc(S(=O)(=O)Nc2nc(Nc3ccc4ccccc4c3)n[nH]2)c(S)cc1Cl,4.4,5.5,4.9,,,,4,
COc1ccc(Nc2n[nH]c(NS(=O)(=O)c3cc(C)c(Cl)cc3S)n2)cc1,7.8,8.5,,> 65,> 65,> 65,,
Cc1cc(S(=O)(=O)Nc2nc(Nc3cccc4ccccc34)n[nH]2)c(S)cc1Cl,7.5,8.6,,> 65,> 65,> 65,,
Cc1cc(S(=O)(=O)Nc2nc(Nc3ccc4cc(O)ccc4c3)n[nH]2)c(S)cc1Cl,7.5,8.6,,> 65,> 65,> 65,,
Cc1cc2c(cc1Cl)SC(/N=C(/N)Nc1ccnc3ccccc13)=NS2(=O)=O,3.1,5.7,,> 65,> 65,> 65,,
COc1cc2nccc(N/C(N)=N\C3=NS(=O)(=O)c4cc(C)c(Cl)cc4S3)c2cc1OC,3.5,6.1,,> 65,> 65,> 65,,
Cc1cc2c(cc1Cl)SC(/N=C(/N)Nc1cccc3ncccc13)=NS2(=O)=O,3.6,5.4,,> 65,> 65,> 65,,
COc1ccc(Nc2n[nH]c(NS(=O)(=O)c3cc(C)c(Cl)cc3S)n2)c(OC)c1OC,6.5,7.7,,> 65,> 65,> 65,,
COc1ccc2ccccc2c1Nc1n[nH]c(NS(=O)(=O)c2cc(C)c(Cl)cc2S)n1,7.7,8.5,,> 65,> 65,> 65,,
Cc1cc2c(cc1Cl)SC(/N=C(/N)Nc1ccc3ccccc3c1)=NS2(=O)=O,3.5,5.8,,> 65,> 65,> 65,,
Cc1cc2c(cc1Cl)SC(/N=C(/N)Nc1ccc3cc(O)ccc3c1)=NS2(=O)=O,3.2,4.4,,> 65,> 65,> 65,,
COc1ccc(N/C(N)=N\C2=NS(=O)(=O)c3cc(C)c(Cl)cc3S2)cc1,3.3,5.4,,> 65,> 65,> 65,,
Cc1cc2c(cc1Cl)SC(/N=C(/N)Nc1ccc3c(ccc(=O)n3C)c1)=NS2(=O)=O,4,5.8,,> 65,> 65,> 65,,
Cc1cc(S(=O)(=O)Nc2nc(Nc3ccnc4cc(Cl)ccc34)n[nH]2)c(S)cc1Cl,4,4.8,,> 65,> 65,> 65,,
Cc1cc(S(=O)(=O)Nc2nc(Nc3cccc4ncccc34)n[nH]2)c(S)cc1Cl,7.2,8.6,,> 65,> 65,> 65,,
Cc1cc2c(cc1Cl)SC(/N=C(/N)Nc1ccc(Cl)cc1)=NS2(=O)=O,5.5,6.6,,> 65,> 65,> 65,,
Cc1cc2c(cc1Cl)SC(/N=C(/N)Nc1ccc3ncccc3c1)=NS2(=O)=O,3.8,5.8,,> 65,> 65,> 65,,
Cc1cc2c(cc1Cl)SC(/N=C(/N)Nc1ccc3cnccc3c1)=NS2(=O)=O,5.4,7.2,,> 65,> 65,> 65,,
Cc1cc(S(=O)(=O)Nc2nc(Nc3cnc4ccccc4c3)n[nH]2)c(S)cc1Cl,7.8,8.6,,> 65,> 65,> 65,,
Cc1cc(S(=O)(=O)Nc2nc(Nc3cccc4cnccc34)n[nH]2)c(S)cc1Cl,7.4,8.7,,> 65,> 65,> 65,,
Cc1cc(S(=O)(=O)Nc2nc(Nc3ccc4ncccc4c3)n[nH]2)c(S)cc1Cl,7.1,8.2,,> 65,> 65,> 65,,
Cc1cc(S(=O)(=O)Nc2nc(Nc3cccc4cccnc34)n[nH]2)c(S)cc1Cl,8.2,8.8,,> 65,> 65,> 65,,
Cc1cc2c(cc1Cl)SC(/N=C(/N)Nc1cncc3ccccc13)=NS2(=O)=O,3,5.3,,> 65,> 65,> 65,,
Cc1cc(S(=O)(=O)Nc2nc(Nc3ccc4cnccc4c3)n[nH]2)c(S)cc1Cl,7.6,8.2,,> 65,> 65,> 65,,
Cc1cc(S(=O)(=O)Nc2nc(Nc3ccc(Br)cc3)n[nH]2)c(S)cc1Cl,3.1,3.9,,> 65,> 65,> 65,,
COc1cc2nccc(Nc3n[nH]c(NS(=O)(=O)c4cc(C)c(Cl)cc4S)n3)c2cc1OC,8.4,9.2,,> 65,> 65,> 65,,
Cc1cc2c(cc1Cl)SC(/N=C(/N)Nc1cccc3cccnc13)=NS2(=O)=O,3.6,5.6,,> 65,> 65,> 65,,
COc1cccc2c(O)ccc(N/C(N)=N\C3=NS(=O)(=O)c4cc(C)c(Cl)cc4S3)c12,3.2,6.3,,> 65,> 65,> 65,,

# The remaining compounds from weak to strong by IC50 (MCF7), led by results:
IC50 (MCF7) [µM],IC50 (MDA-MB-231) [µM],IC50 (HCT-116) [µM],SMILES,selectivity ratio [1],selectivity ratio [2],selectivity ratio [3],IC50 (SCC-9) [µM],IC50 at 72 h [4] [µM]
3,4.3,,COc1ccc2ccccc2c1N/C(N)=N\C1=NS(=O)(=O)c2cc(C)c(Cl)cc2S1,> 65,> 65,> 65,,
2.9,5.2,,CC(=O)c1cn(C)c2ccc(N/C(N)=N\C3=NS(=O)(=O)c4cc(C)c(Cl)cc4S3)cc12,> 65,> 65,> 65,,
2.8,3.2,4.1,Cc1cc(S(=O)(=O)Nc2nc(NC(=O)c3ccc4ccccc4c3)n[nH]2)c(S)cc1Cl,> 65,> 65,> 65,2.6,
2.5,4.1,,Cc1cc2c(cc1Cl)SC(/N=C(/N)Nc1ccc3nccnc3c1)=NS2(=O)=O,> 65,> 65,> 65,,
2.5,4,,COc1nc(N/C(N)=N\C2=NS(=O)(=O)c3cc(C)c(Cl)cc3S2)c2ccn(C)c2n1,> 65,> 65,> 65,,
2.4,4.1,,COc1cc(N/C(N)=N\C2=NS(=O)(=O)c3cc(C)c(Cl)cc3S2)cc(OC)c1OC,> 65,> 65,> 65,,
2.4,4,,Cc1cc2c(cc1Cl)SC(/N=C(/N)NC(=O)c1ccc3ccccc3c1)=NS2(=O)=O,> 65,> 65,> 65,,
2.3,4.1,,Cc1cc2c(cc1Cl)SC(/N=C(/N)Nc1cnc3ccccc3c1)=NS2(=O)=O,> 65,> 65,> 65,,
2.3,3.8,,Cc1cc2c(cc1Cl)SC(/N=C(/N)Nc1ccc3ccccc3n1)=NS2(=O)=O,> 65,> 65,> 65,,
1.8,2.6,3.8,Cc1cc(S(=O)(=O)Nc2nc(Nc3cncc4ccccc34)n[nH]2)c(S)cc1Cl,> 65,> 65,> 65,2.1,
1.3,2.6,3.2,Cc1cc2c(cc1Cl)SC(/N=C(/N)Nc1cccc3cnccc13)=NS2(=O)=O,> 65,> 65,> 65,1.2,72.2
1.1,2.4,4.4,Cc1cc2c(cc1Cl)SC(/N=C(/N)Nc1ccc(N3CCOCC3)cc1)=NS2(=O)=O,> 65,> 65,> 65,1.2,70.1
1,2.5,4,Cc1cc2c(cc1Cl)SC(/N=C(/N)Nc1cnc3ccccn3c1=O)=NS2(=O)=O,> 65,> 65,> 65,0.9,66.5
